Data reported in ChEMBL document CHEMBL5331135, “Design, Synthesis, and Evaluation of Glucose Transporter Inhibitor-SN38 Conjugates for Targeting Colorectal Cancer” (J Med Chem, 2023).
pIC50: −log10 of the molar value. Active and inactive are the calls of the source. The calls are words filed in the database; no cut-off is given here.

What was measured:
HCT-116 = experiment: Cytotoxicity against human HCT-116 cells incubated for 48 hrs by SRB assay; assay type: functional, cell-based; conditions: HCT-116, 48 h
COLO 205 = experiment: Cytotoxicity against human COLO 205 cells incubated for 48 hrs by SRB assay; assay type: functional, cell-based; conditions: COLO 205, 48 h
HT-29 = experiment: Cytotoxicity against human HT-29 cells incubated for 48 hrs by SRB assay; assay type: functional, cell-based; conditions: HT-29, 48 h
[1] = Prodrug conversion in stomach of BALB/c mouse assessed as SN38 release at 20 mg/kg, ip measured after 4 hrs by UHPLC-MS/MS analysis; assay type: ADME, organism-based; conditions: in vivo
Colorectal cancer cell = experiment: Antitumor activity against AOM/DSS-induced orthotopic CRC BALB/c mouse model assessed as reduction in tumor area at 20 mg/kg, ip administered every other day for 2 weeks by dissecting microscopic analysis; assay type: functional, organism-based
[2] = Prodrug conversion in kidney of BALB/c mouse assessed as SN38 release at 20 mg/kg, ip measured after 4 hrs by UHPLC-MS/MS analysis; assay type: ADME, organism-based; conditions: in vivo
[3] = Drug uptake in plasma of BALB/c mouse at 20 mg/kg, ip measured after 3 hrs by UHPLC-MS/MS analysis; assay type: ADME, organism-based; conditions: in vivo
[4] = Prodrug conversion in liver of BALB/c mouse assessed as SN38 release at 20 mg/kg, ip measured after 4 hrs by UHPLC-MS/MS analysis; assay type: ADME, organism-based; conditions: in vivo
[5] = Drug uptake in human COLO 205 cells assessed as drug internalization in presence of 4.5 g/L glucose by fluorescence based assay; assay type: ADME, cell-based
[6] = Prodrug conversion in spleen of BALB/c mouse assessed as SN38 release at 20 mg/kg, ip measured after 4 hrs by UHPLC-MS/MS analysis; assay type: ADME, organism-based; conditions: in vivo
[7] = Prodrug conversion in brain of BALB/c mouse assessed as SN38 release at 20 mg/kg, ip measured after 4 hrs by UHPLC-MS/MS analysis; assay type: ADME, organism-based; conditions: in vivo
[8] = Prodrug conversion in lung of BALB/c mouse assessed as SN38 release at 20 mg/kg, ip measured after 4 hrs by UHPLC-MS/MS analysis; assay type: ADME, organism-based; conditions: in vivo
[9] = Prodrug conversion in tumor of BALB/c mouse assessed as SN38 release at 20 mg/kg, ip measured after 4 hrs by UHPLC-MS/MS analysis; assay type: ADME, organism-based, Neoplasm; conditions: in vivo
[10] = Toxicity in AOM/DSS-induced orthotopic CRC BALB/c mouse model assessed as body weight loss at 20 mg/kg, ip administered every other day for 2 weeks; assay type: organism-based; conditions: in vivo, 336 h
[11] = Prodrug conversion in heart of BALB/c mouse assessed as SN38 release at 20 mg/kg, ip measured after 4 hrs by UHPLC-MS/MS analysis; assay type: ADME, organism-based; conditions: in vivo
[12] = Biodistribution in colorectal tumor site of BALB/c mouse at 20 mg/kg, ip measured after 4 hrs by UHPLC-MS/MS analysis; assay type: ADME, organism-based, Neoplasm; conditions: in vivo
[13] = Stability in human plasma assessed as half life by RP-HPLC analysis; assay type: ADME, cell-free
[14] = Biodistribution in gastrointestinal tract of BALB/c mouse at 20 mg/kg, ip measured after 4 hrs by UHPLC-MS/MS analysis; assay type: ADME, organism-based; conditions: in vivo
[15] = Prodrug conversion in intestine of BALB/c mouse assessed as SN38 release at 20 mg/kg, ip measured after 4 hrs by UHPLC-MS/MS analysis; assay type: ADME, organism-based; conditions: in vivo
[16] = Toxicity in AOM/DSS-induced orthotopic CRC BALB/c mouse model assessed as lesions in stomach at 20 to 40 mg/kg, iv administered once every 2 days for 2 weeks by H&E staining based analysis; assay type: organism-based; conditions: in vivo, 336 h, dose 20-40 mg/kg
[17] = Toxicity in AOM/DSS-induced orthotopic CRC BALB/c mouse model assessed as lesions in lung at 20 to 40 mg/kg, iv administered once every 2 days for 2 weeks by H&E staining based analysis; assay type: organism-based; conditions: in vivo, 336 h, dose 20-40 mg/kg
[18] = Toxicity in AOM/DSS-induced orthotopic CRC BALB/c mouse model assessed as lesions in heart at 20 to 40 mg/kg, iv administered once every 2 days for 2 weeks by H&E staining based analysis; assay type: organism-based; conditions: in vivo, 336 h, dose 20-40 mg/kg
[19] = Toxicity in AOM/DSS-induced orthotopic CRC BALB/c mouse model assessed as lesions in kidney at 20 to 40 mg/kg, iv administered once every 2 days for 2 weeks by H&E staining based analysis; assay type: organism-based; conditions: in vivo, 336 h, dose 20-40 mg/kg
[20] = Toxicity in AOM/DSS-induced orthotopic CRC BALB/c mouse model assessed as lesions in liver at 20 to 40 mg/kg, iv administered once every 2 days for 2 weeks by H&E staining based analysis; assay type: organism-based; conditions: in vivo, 336 h, dose 20-40 mg/kg
[21] = Stability in human plasma assessed as formation of carboxylate product measured for 72 hrs by RP-HPLC analysis; assay type: ADME, cell-free
[22] = Toxicity in AOM/DSS-induced orthotopic CRC BALB/c mouse model assessed as lesions in spleen at 20 to 40 mg/kg, iv administered once every 2 days for 2 weeks by H&E staining based analysis; assay type: organism-based; conditions: in vivo, 336 h, dose 20-40 mg/kg
[23] = Toxicity in AOM/DSS-induced orthotopic CRC BALB/c mouse model assessed as body weight loss at 40 mg/kg, iv administered once every 2 days for 2 weeks; assay type: organism-based; conditions: in vivo, 336 h
[24] = Antitumor activity against AOM/DSS-induced orthotopic CRC BALB/c mouse model assessed as tumor growth inhibition at 20 mg/kg, iv administered once every 2 days for 2 weeks in presence of SGLT inhibitor by dissecting microscopic analysis relative to control; assay type: functional, Colorectal cancer cell; parameters: scale not given: the % may be the effect or the level left
[25] = Antitumor activity against AOM/DSS-induced orthotopic CRC BALB/c mouse model assessed as tumor growth inhibition at 40 mg/kg, iv administered once every 2 days for 2 weeks in presence of SGLT inhibitor by dissecting microscopic analysis relative to control; assay type: functional, Colorectal cancer cell; parameters: scale not given: the % may be the effect or the level left

## O=C(CCc1ccc(O)cc1)c1c(O)cc(O)cc1O[C@@H]1O[C@H](CO)[C@@H](O)[C@H](O)[C@H]1O [PHLORIZIN]
HCT-116
  pIC50: < 4.00
COLO 205
  pIC50: < 4.00
HT-29
  pIC50: < 4.00

## CCc1c2c(nc3ccc(OC(=O)OCCSSCCOCCOCCOc4cc(O)c(C(=O)CCc5ccc(O)cc5)c(O)c4)cc13)-c1cc3c(c(=O)n1C2)COC(=O)[C@]3(O)CC
[1]
  Drug metabolism: Metabolite_Detected
Colorectal cancer cell
  Activity: Active
[2]
  Drug metabolism: Metabolite_Detected
HCT-116
  pIC50: 7.47
[3]
  Drug uptake: Not Active
[4]
  Drug metabolism: Metabolite_Detected
[5]
  Drug uptake: Active
[6]
  Drug metabolism: Metabolite_Detected
[7]
  Drug metabolism: Metabolite_Detected
[8]
  Drug metabolism: Metabolite_Detected
[9]
  Drug metabolism: Metabolite_Detected
[10]
  Activity: Non-Toxic
COLO 205
  pIC50: 6.24
[11]
  Drug metabolism: Metabolite_Detected
[12]
  Drug uptake: Active
[13]
  half-life: 0.833 h
[14]
  Drug uptake: Active
[15]
  Drug metabolism: Metabolite_Detected
HT-29
  pIC50: 6.51

## CCc1c2c(nc3ccc(O)cc13)-c1cc3c(c(=O)n1C2)COC(=O)[C@]3(O)CC [7-ETHYL-10-HYDROXYCAMPTOTHECIN]
HCT-116
  pIC50: 7.26
COLO 205
  pIC50: 9.12
HT-29
  pIC50: 6.37

## CCc1c2c(nc3ccc(OCc4ccc(NC(=O)[C@H](CCCNC(N)=O)NC(=O)[C@@H](NC(=O)CCCCN5C(=O)CC(SCCOCCOCCOc6cc(O)c(C(=O)CCc7ccc(O)cc7)c(O[C@@H]7O[C@H](CO)[C@@H](O)[C@H](O)[C@H]7O)c6)C5=O)C(C)C)cc4)cc13)-c1cc3c(c(=O)n1C2)COC(=O)[C@]3(O)CC (stereo not given in full)
[16]
  Activity: Non-Toxic
HCT-116
  pIC50: 5.49
[17]
  Activity: Non-Toxic
[5]
  Drug uptake: Active
[18]
  Activity: Non-Toxic
[19]
  Activity: Non-Toxic
[20]
  Activity: Non-Toxic
COLO 205
  pIC50: 4.81
[21]
  Stability: Stable
[22]
  Activity: Non-Toxic
[23]
  Activity: Non-Toxic
[13]
  half-life: 36 h
[24]
  Activity: 45%
[25]
  Activity: 55%
HT-29
  pIC50: < 4.00
